Experimental data: patent US3961066A, “6,7-Benzomorphan derivatives” (priority 1973, dated 1976)
Where two headings read alike, the source gives them in different places.

Columns and labels:
[1] = Analgesic activity (antagonism of the syndrome produced by intraperitoneal injection of 0.6 % aqueous acetic acid); format: in vivo, mice; details: for ED50: Mus musculus; for ED50 / analgesic activity compared with morphine: sc; for analgesic activity compared with pentazocin: s.c., result in words; for analgesic activity compared with morphine: mouse, in vivo
Method: Note: The test was based on the specific antagonism of the test compound to the typical syndrome produced by intraperitoneal injection of 0.6 % aqueous acetic acid. The syndrome was characterized by intermittent contractions of the abdomen, twisting and turning of the trunk and extension of the hind legs. A group of 5 mice was used for each dose level. The test compound was administered subcutaneously 20 minutes before the injection of acetic acid. […] The ED50 value was calculated according to the Litchfield-Wilcoxon's method.

[2] = Physical dependency (abstinence syndrome, body weight decrease after withdrawal following 4 weeks of s.c. administration); format: in vivo, male rats of Wistar strain; set-up: key to Abstinence syndrome: ++: severe decrease (about 5 % decrease); ++: moderate decrease; +: mild decrease; -: no decrease; details: rats
Method: Note: Groups of animals of male rats of Wistar strain (body weight, 150 g), each group consisting of 20 male rats, were subcutaneously given the test compound twice a day for 4 consecutive weeks. On the next day after drug withdrawal, the body weight was measured. The symbols have the following meanings: ++, severe decrease (about 5 % decrease); ++, moderate decrease; +, mild decrease; -, no decrease.

[3] = mice, s.c. 20 minutes before the injection of acetic acid, Litchfield-Wilcoxon's method, read-out: ED50

Structure (SMILES) | ED50 [1, 3] | analgesic activity compared with pentazocin ([1]; mice) | analgesic activity compared with morphine [1] | Abstinence syndrome ([2]; s.c., 40 mg/kg/day for 4 weeks, twice a day, body weight measured on the next day after drug withdrawal) | physical dependency ([2]; subcutaneously, everyday for 4 weeks, result in words) | ED50 [1]
CC1CN(CCc2ccccc2)C2Cc3ccc(O)cc3C1(C)C2 (stereo not drawn) [2'-hydroxy-2-(β-phenylethyl)-4,5-dimethyl-6,7-benzomorphan] | 0.23 mg/kg | much more potent analgesic activity than pentazocin | more potent analgesic activity than morphine |  |  | 
CC1CN(CCCC(=O)c2ccc(F)cc2)C2Cc3ccc(O)cc3C1(C)C2 (stereo not drawn) [2'-hydroxy-2-[γ-(p-fluorobenzoyl)-n-propyl]-4,5-dimethyl-6,7-benzomorphan] | 0.36 mg/kg | much more potent analgesic activity than pentazocin | more potent analgesic activity than morphine | - | did not produce any physical dependency | 
CN1CC[C@]23c4c5ccc(O)c4O[C@H]2[C@@H](O)C=C[C@H]3[C@H]1C5 [Morphine, reference compound] |  |  |  |  |  | 1.2 mg/kg
